# Source: patent publication US9808456B2, “Piperazine thiazole derivatives useful in the treatment of tauopathies such as Alzheimer's disease” (REMYND NV, priority 2011, dated 2017)
# What was measured:
# [1] = Microsomal stability assay, rat liver microsomes (intrinsic clearance); assay type: in vitro ADME
# Description: (§1) Microsomal Stability Testing—Assay Description
# (§2) The microsomal stability assay measures the rate of disappearance of a test compound from an incubation containing human or animal liver microsomes and metabolic cofactors (typically NADPH). The assay is primarily used for ranking the relative CYP-mediated metabolism propensities of compounds within a chemical series and as a guide to selecting sufficiently stable compounds for pharmacokinetics and pharmacodynamics experiments. [In addition to CYPs, microsomally located enzymes which also make use of NADPH (such as […]) and those which require no cofactors (such as carboxylesterases) are active.]
# (§3) Incubations are performed in 96-well deep-well plates with a final incubation volume of 600 μL. Incubations contain (finally) 1-20 μM test compound, 0.5 mg/mL liver microsomes (typically human, rat or mouse) and NADPH regenerating system. 50 μL aliquots are removed after 1, 3, 6, 9, 15, 25, 35 and 45 minutes and quenched in 150 μL acetonitrile containing internal standard. Samples are then cooled and centrifuged before analysis by LC-MS/MS.
# (§4) Log peak area ratio (test compound peak area/internal standard peak area) is plotted against incubation time and a linear fit made to the data with emphasis upon the initial rate of compound disappearance. […]
# [2] = Microsomal stability assay, human liver microsomes (intrinsic clearance); assay type: in vitro ADME; conditions: read-out: CLint. (Hum)
# Description: as §1, §2, §3, §4
# M17_3TAU(P301L) cells = assay: Neuroblastoma tauopathy model: inhibition of TAU-induced cytotoxicity (LDH) after retinoic acid differentiation; assay type: cell-based; conditions: Homo sapiens, 168 h, inhibition of TAU-induced toxicity, 7 days retinoic acid, LDH readout
# From the text: A TAU expression plasmid was constructed by sub-cloning the cDNA encoding for human TAU-P301L protein, wherein proline at position 301 is substituted by a leucine residue, into mammalian expression vector pcDNA3.1 resulting in the plasmid pcDNA3.1-TAUP301L. Plasmids pcDNA3.1 and pcDNA3.1-TAU P301L were transfected into human neuroblastoma cells (BE-M17; ATCC No. CRL2267™) using lipofectamine reagent and subsequently, independent clonal cell lines with the plasmids stably integrated into the genome were selected by antibiotic resistance selection (Geneticin (G418)), resulting in cell lines M17.pcDNA3 and M17_3TAUP301L. Expression of the TAUP301L gene in the M17_3TAUP301L cells was confirmed by Western blot analysis.
# Differentiation of the cells with RA leads to phosphorylation and subsequent aggregation of TAU, inducing a tauopathy in these cells. Cytotoxicity of cells was measured by quantification of lactate dehydrogenase (LDH) levels. In dead cells LDH is leaked out of the cells into the medium due to a loss of plasma-membrane integrity.
# Briefly, 3 days preceeding the experiment pre-cultures of M17.pcDNA3 and M17_3TAU(P301L) cells were prepared, starting from a stock culture, at a density of 50.000-100.000 cells/cm2 in detection medium (Optimem Reduced Serum without phenol red (Gibco, Cat. 31985-047) supplemented with 1% fetal calf serum (FCS), 1 mM sodium pyruvate, 1× non-essential amino acids (NEAR), 500 μg/ml G418 and 0.5× antibiotic/antimycotic (ABAM)). At the day of the experiment these precultures were diluted to ˜0, 1.106 cells/ml in detection medium without FCS and 60 μL of this suspension is dispensed per well into a 96-well microtiter plate. After 3 hours of incubation at 37° C./5% CO2 an equal volume of detection medium containing 2.5 μM RA was added and subsequently incubated for 7 days at 37° C./5% CO2. After 7 days, LDH activity was determined using the Promega Cytotox 96 Non-Radioactive cytotoxicity assay (Cat. G1780), according the manufacturer's instructions. Cytotoxicity is measured as the ratio of LDH increase in the supernatant divided by the LDH increase in the total cell suspension (sum of the LDH measured in cells and supernatant).
# The M17_3TAU(P301L) cell line makes it possible to assess the ability of novel compounds to inhibit TAU-induced cytotoxicity. […] Compounds were tested for their ability to hamper TAU-induced toxicity at different concentrations, ranging from low non-effective concentrations to high potent concentrations. Afterwards, the dose-dependent inhibition curve was used to calculate their EC50 (Table III).
# [3] = Lipophilicity (logD) by Carrier mediated distribution system (CAMDIS); assay type: physicochemical
# Description: Lipophilicity data were measured with the Carrier mediated distribution system (CAMDIS) as described in EP1705474A1.
microsomal CLint [1],microsomal CLint [2],logD [3],Structure (SMILES),EC50 (M17_3TAU(P301L) cells)
80 µL/min/mg,17 µL/min/mg,2.93,"FC1(F)CCN(c2nsc(N3CCN(CCc4ccc(Cl)cc4)CC3)n2)CC1 [Example 2, 1-[2-(4-Chloro-phenyl)-ethyl]-4-[3-(4,4-difluoro-piperidin-1-yl)-[1,2,4]thiadiazol-5-yl]-piperazine]",53.6 nM
48 µL/min/mg,43 µL/min/mg,,Clc1ccc(CCN2CCN(c3nc(Cc4ccc(Cl)cc4)ns3)CC2)cc1 [reference compound],
